Results: the supplement of paper PMC10307832

Legend:
Test in all cases: relative viability (nuclei count vs DMSO), 5 days (fraction); higher = more cells survive
NCI-H1993 = tested on: NCI-H1993
Procedure, shortened: (§1)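 Five library-drug doses in √10 steps were combined with a fixed anchor-drug dose, or a single drug was given alone, by pin tool to lung cancer cell lines in 1536-well plates the day after seeding. Nuclei were stained and counted after 5 days. Relative viability is the nuclei count in treated wells over that in vehicle wells, taken as the median of duplicate plates.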

NCI-H2405 = tested on: NCI-H2405
Procedure, shortened: as §1

NCI-H2085 = tested on: NCI-H2085
Procedure, shortened: as §1

SK-MES-1 = tested on: SK-MES-1
Procedure, shortened: as §1

NCI-H1355 = tested on: NCI-H1355
Procedure, shortened: as §1

NCI-H1793 = tested on: NCI-H1793
Procedure, shortened: as §1

UMC-11 = tested on: UMC-11
Procedure, shortened: as §1

LCLC-103H = tested on: LCLC-103H
Procedure, shortened: as §1

NCI-H1395 = tested on: NCI-H1395
Procedure, shortened: as §1

NCI-H23 = tested on: NCI-H23
Procedure, shortened: as §1

EPLC-272H = tested on: EPLC-272H
Procedure, shortened: as §1

LCLC-97TM1 = tested on: LCLC-97TM1
Procedure, shortened: as §1

NCI-H1944 = tested on: NCI-H1944
Procedure, shortened: as §1

HCC-827 = tested on: HCC-827
Procedure, shortened: as §1

HCC-44 = tested on: HCC-44
Procedure, shortened: as §1

EMC-BAC-2 = tested on: EMC-BAC-2
Procedure, shortened: as §1

H3255 = tested on: H3255
Procedure, shortened: as §1

NCI-H650 = tested on: NCI-H650
Procedure, shortened: as §1

NCI-H2087 = tested on: NCI-H2087
Procedure, shortened: as §1

NCI-H1651 = tested on: NCI-H1651
Procedure, shortened: as §1

NCI-H520 = tested on: NCI-H520
Procedure, shortened: as §1

ChaGo-K-1 = tested on: ChaGo-K-1
Procedure, shortened: as §1

NCI-H322M = tested on: NCI-H322M
Procedure, shortened: as §1

`COc1cc(N2CCC(C(N)=O)CC2)ccc1Nc1nc(N)c(Cl)c(Nc2ccccc2S(=O)(=O)C(C)C)n1` [HG-5-88-01] + O=C(CCCCCCC(=O)Nc1ccccc1)NO [Vorinostat] (partner 1 µM) was tested, and the relative viability (NCI-H1993; first compound 0.04 µM) was 0.669, the relative viability (NCI-H1993; first compound 0.1265 µM) was 0.976 and the relative viability (NCI-H1993; first compound 0.4 µM) was 0.721. It also gave a relative viability (NCI-H1993; first compound 4 µM) of 0.644, a relative viability (NCI-H2405; first compound 0.04 µM) of 1.07 and a relative viability (NCI-H2405; first compound 0.1265 µM) of 1.06. For the same compound, the relative viability (NCI-H2405; first compound 0.4 µM) was 0.895, the relative viability (NCI-H2405; first compound 1.265 µM) was 1.03 and the relative viability (NCI-H2405; first compound 4 µM) was 1.02. It also gave a relative viability (NCI-H2085; first compound 0.04 µM) of 0.825, a relative viability (NCI-H2085; first compound 0.1265 µM) of 0.846 and a relative viability (NCI-H2085; first compound 0.4 µM) of 0.729. For the same compound, the relative viability (NCI-H2085; first compound 1.265 µM) was 0.791, the relative viability (NCI-H2085; first compound 4 µM) was 0.758 and the relative viability (SK-MES-1; first compound 0.04 µM) was 1.14. It also gave a relative viability (SK-MES-1; first compound 0.1265 µM) of 1.03, a relative viability (SK-MES-1; first compound 0.4 µM) of 1.1 and a relative viability (SK-MES-1; first compound 1.265 µM) of 0.979. The relative viability (SK-MES-1; first compound 4 µM) was 1.21, the relative viability (NCI-H1355; first compound 0.04 µM) was 0.59 and the relative viability (NCI-H1355; first compound 0.1265 µM) was 0.62. It also gave a relative viability (NCI-H1355; first compound 0.4 µM) of 0.626, a relative viability (NCI-H1355; first compound 1.265 µM) of 0.587 and a relative viability (NCI-H1355; first compound 4 µM) of 0.399. For the same compound, the relative viability (NCI-H1793; first compound 0.04 µM) was 0.648, the relative viability (NCI-H1793; first compound 0.1265 µM) was 0.95 and the relative viability (NCI-H1793; first compound 0.4 µM) was 0.725. It also gave a relative viability (NCI-H1793; first compound 1.265 µM) of 0.575, a relative viability (NCI-H1793; first compound 4 µM) of 0.53 and a relative viability (UMC-11; first compound 0.04 µM) of 0.437. It also gave a relative viability (UMC-11; first compound 0.1265 µM) of 0.442, a relative viability (UMC-11; first compound 0.4 µM) of 0.354 and a relative viability (UMC-11; first compound 1.265 µM) of 0.33. It also gave a relative viability (UMC-11; first compound 4 µM) of 0.288, a relative viability (LCLC-103H; first compound 0.04 µM) of 0.826 and a relative viability (LCLC-103H; first compound 0.1265 µM) of 0.767. The relative viability (LCLC-103H; first compound 0.4 µM) was 0.65, the relative viability (LCLC-103H; first compound 1.265 µM) was 0.757 and the relative viability (LCLC-103H; first compound 4 µM) was 0.605. It also gave a relative viability (NCI-H1395; first compound 0.04 µM) of 0.69, a relative viability (NCI-H1395; first compound 0.1265 µM) of 0.681 and a relative viability (NCI-H1395; first compound 0.4 µM) of 0.733. It also gave a relative viability (NCI-H1395; first compound 1.265 µM) of 0.832, a relative viability (NCI-H1395; first compound 4 µM) of 0.597 and a relative viability (NCI-H23; first compound 0.04 µM) of 0.793. The relative viability (NCI-H23; first compound 0.1265 µM) was 0.752, the relative viability (NCI-H23; first compound 0.4 µM) was 0.609 and the relative viability (NCI-H23; first compound 1.265 µM) was 0.538. For the same compound, the relative viability (NCI-H23; first compound 4 µM) was 0.307, the relative viability (EPLC-272H; first compound 0.04 µM) was 0.497 and the relative viability (EPLC-272H; first compound 0.1265 µM) was 0.606. For the same compound, the relative viability (EPLC-272H; first compound 0.4 µM) was 0.6, the relative viability (EPLC-272H; first compound 1.265 µM) was 0.503 and the relative viability (EPLC-272H; first compound 4 µM) was 0.116. The relative viability (LCLC-97TM1; first compound 0.04 µM) was 0.75, the relative viability (LCLC-97TM1; first compound 0.1265 µM) was 0.757 and the relative viability (LCLC-97TM1; first compound 0.4 µM) was 0.62. For the same compound, the relative viability (LCLC-97TM1; first compound 1.265 µM) was 0.645, the relative viability (LCLC-97TM1; first compound 4 µM) was 0.126 and the relative viability (NCI-H1944; first compound 0.04 µM) was 0.623. For the same compound, the relative viability (NCI-H1944; first compound 0.1265 µM) was 0.627, the relative viability (NCI-H1944; first compound 0.4 µM) was 0.645 and the relative viability (NCI-H1944; first compound 1.265 µM) was 0.55. It also gave a relative viability (NCI-H1944; first compound 4 µM) of 0.568, a relative viability (HCC-827; first compound 0.04 µM) of 0.829 and a relative viability (HCC-827; first compound 0.1265 µM) of 0.807. It also gave a relative viability (HCC-827; first compound 0.4 µM) of 0.87, a relative viability (HCC-827; first compound 1.265 µM) of 0.335 and a relative viability (HCC-827; first compound 4 µM) of 0.235. For the same compound, the relative viability (HCC-44; first compound 0.04 µM) was 1.07, the relative viability (HCC-44; first compound 0.1265 µM) was 1.14 and the relative viability (HCC-44; first compound 0.4 µM) was 1.05. For the same compound, the relative viability (HCC-44; first compound 1.265 µM) was 1.08, the relative viability (HCC-44; first compound 4 µM) was 1.14 and the relative viability (EMC-BAC-2; first compound 0.04 µM) was 0.503. It also gave a relative viability (EMC-BAC-2; first compound 0.1265 µM) of 0.442, a relative viability (EMC-BAC-2; first compound 0.4 µM) of 0.354 and a relative viability (EMC-BAC-2; first compound 1.265 µM) of 0.518. The relative viability (EMC-BAC-2; first compound 4 µM) was 0.448, the relative viability (H3255; first compound 0.04 µM) was 0.77 and the relative viability (H3255; first compound 0.1265 µM) was 0.907. It also gave a relative viability (H3255; first compound 0.4 µM) of 0.729, a relative viability (H3255; first compound 4 µM) of 0.741 and a relative viability (NCI-H650; first compound 0.04 µM) of 0.409. For the same compound, the relative viability (NCI-H650; first compound 0.1265 µM) was 0.402, the relative viability (NCI-H650; first compound 0.4 µM) was 0.386 and the relative viability (NCI-H650; first compound 1.265 µM) was 0.424. For the same compound, the relative viability (NCI-H650; first compound 4 µM) was 0.29, the relative viability (NCI-H2087; first compound 0.04 µM) was 0.74 and the relative viability (NCI-H2087; first compound 0.1265 µM) was 0.692. The relative viability (NCI-H2087; first compound 0.4 µM) was 0.592, the relative viability (NCI-H2087; first compound 1.265 µM) was 0.928 and the relative viability (NCI-H2087; first compound 4 µM) was 0.76. For the same compound, the relative viability (NCI-H1651; first compound 0.04 µM) was 0.509, the relative viability (NCI-H1651; first compound 0.1265 µM) was 0.57 and the relative viability (NCI-H1651; first compound 0.4 µM) was 0.572. The relative viability (NCI-H1651; first compound 1.265 µM) was 0.552, the relative viability (NCI-H1651; first compound 4 µM) was 0.528 and the relative viability (NCI-H520; first compound 0.04 µM) was 0.747. For the same compound, the relative viability (NCI-H520; first compound 0.1265 µM) was 0.601, the relative viability (NCI-H520; first compound 0.4 µM) was 0.803 and the relative viability (NCI-H520; first compound 1.265 µM) was 0.79. The relative viability (NCI-H520; first compound 4 µM) was 0.781, the relative viability (ChaGo-K-1; first compound 0.04 µM) was 0.75 and the relative viability (ChaGo-K-1; first compound 0.1265 µM) was 0.71. The relative viability (ChaGo-K-1; first compound 0.4 µM) was 0.737, the relative viability (ChaGo-K-1; first compound 1.265 µM) was 0.786 and the relative viability (ChaGo-K-1; first compound 4 µM) was 0.589. It also gave a relative viability (NCI-H322M; first compound 0.04 µM) of 0.864, a relative viability (NCI-H322M; first compound 0.1265 µM) of 0.809 and a relative viability (NCI-H322M; first compound 0.4 µM) of 0.782. For the same compound, the relative viability (NCI-H322M; first compound 1.265 µM) was 0.668 and the relative viability (NCI-H322M; first compound 4 µM) was 0.706.
